The record followed here is patent EP2918282A1, “Pharmaceutical composition for the treatment of virus diseases, such as flu” (OOO "CytoNIR", priority 2014, dated 2015).

The experiment has as its system Grippevirus A/Vladivostok/2/09 (H1N1). The experiment is described as follows: Survival of mice infected with a lethal dose of influenza virus, peroral treatment for 5 days. The note with it: virus strain resistant to Oseltamyvir; 30 mg/kg. The experiment is classed as in vivo, Mäuse. From the text:
Die Wirksamkeit des Mittels wurde an einem Modell der Überlebensfähigkeit von angesteckten Versuchstieren geprüft. Die Versuchstiere wurden mit einer tödlichen Dosis des Grippevirus A/Vladivostok/2/09 (H1N1) angesteckt. Während der Forschung wurde das erfindungsgemäße Mittel 5 Tage lang peroral verabreicht.
Als Versuchstiere wurden weiße männliche Auszucht-Mäuse mit einem Körpergewicht von 16 - 18 g aus der Aufzuchtstation Rappolovo der Russischen Akademie der medizinischen Wissenschaften verwendet. Vor der Prüfung wurden die Versuchstiere einer Quarantäne in einem Vivarium im Laufe einer Woche unterzogen. Die Versuchstiere wurden unter genormten Klima-Bedingungen mit ausgewogener Fütterung gehalten. Jede Gruppe enthielt je 30 Versuchstiere.
Um eine versuchsmäßige Grippe-Infektion zu simulieren, wurde ein bestimmter Virusstamm eingesetzt. Die Versuchstiere wurden mit dem A/Vladivostok/2/09 (H1N1)-Virus in Mengen von 1 und 10 DL50 intranasal angesteckt.
Die Behandlung der angesteckten Mäuse wurde 24 Stunden nach der Ansteckung begonnen. Die Präparate wurden intragastrisch mittels einer Sonde verabreicht. Bei diesen Präparaten handelte es sich um eine Lösung in einer physiologischen Kochsalzlösung. Die Dosis des Arzneimittels wurde pro ein kg des Körpergewichts des Tieres berechnet. Die Behandlung wurde im Laufe von 5 Tagen vorgenommen. […]

For `CCOC(=O)C1=C[C@@H](OC(CC)CC)[C@H](NC(C)=O)[C@@H](N)C1` [Tamiflu, Oseltamyvir], the Schutzsteigerung result is given as “keine zuverlässige Schutzsteigerung”.
